Experimental data from patent US20140073634A1 (Institute For Applied Cancer Science/The University of …, priority 2012, published 2014).

The compounds below were run on 293T-HRE-GFP-luc cells (assay: Cell-based reporter assay for IC50 determinations (HRE-luciferase, hypoxia)). Details: 6 h, 6 hrs hypoxia (1% O2), luminescence.
Method in brief: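 293T-HRE-GFP-luc cells were pre-incubated with serially diluted compounds for 30 min under normoxia, then held 6 hrs in hypoxia (1% O2, 37° C). HRE-driven luciferase read by Steadylite Plus luminescence; IC50 from four-parameter logistic fit.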

Question: `O=c1ccc(-c2nc(-c3ccc(OC(F)(F)F)cc3)no2)nn1Cc1cccc(O)c1` [Example 174, 2-[(3-hydroxyphenyl)methyl]-6-{3-[4-(trifluoromethoxy)phenyl]-1,2,4-oxadiazol-5-yl}-2,3-dihydropyridazin-3-one] was tested. Which IC50 did it give?
Answer: Its IC50 is 100 to 1000 nM.

Question: Which IC50 does the source give for `CS(=O)(=O)C1CCN(c2cc(Cn3cc(-c4nc(-c5ccc(OC(F)(F)F)cc5)no4)ccc3=O)ccn2)CC1` [Example 175, 1-{[2-(4-methanesulfonylpiperidin-1-yl)pyridin-4-yl]methyl}-5-{3-[4-(trifluoromethoxy)phenyl]-1,2,4-oxadiazol-5-yl}-1,2-dihydropyridin-2-one] here?
Answer: The IC50 was under 100 nM.

Question: `CN1CCN(c2cc(Cn3cc(-c4nc(-c5ccc(OC(F)(F)F)cc5)no4)ccc3=O)ccn2)CC1=O` [Example 176, 1-methyl-4-{4-[(2-oxo-5-{3-[4-(trifluoromethoxy)phenyl]-1,2,4-oxadiazol-5-yl}-1,2-dihydropyridin-1-yl)methyl]pyridin-2-yl}piperazin-2-one] was tested. Which IC50 did it give?
Answer: The IC50 was under 100 nM.

Question: `COCCOc1cccc(Cn2nc(-c3nc(-c4ccc(OC(F)(F)F)cc4)no3)ccc2=O)c1` [Example 177, 2-{[3-(2-methoxyethoxy)phenyl]methyl}-6-{3-[4-(trifluoromethoxy)phenyl]-1,2,4-oxadiazol-5-yl}-2,3-dihydropyridazin-3-one] was tested. Which IC50 did it give?
Answer: The IC50 was under 100 nM.

Question: `O=c1ccc(-c2nc(-c3ccc(OC(F)(F)F)cc3)no2)nn1Cc1cccc(OCCO)c1` [Example 179, 2-{[3-(2-hydroxyethoxy)phenyl]methyl}-6-{3-[4-(trifluoromethoxy)phenyl]-1,2,4-oxadiazol-5-yl}-2,3-dihydropyridazin-3-one] was tested. Which IC50 did it give?
Answer: The IC50 was under 100 nM.

Question: `C#CCCCC(=O)N1CCN(c2cccc(Cn3cc(-c4nc(-c5ccc(OC(F)(F)F)cc5)no4)ccc3=O)c2)CC1` [Example 180] was tested. Which IC50 did it give?
Answer: Its IC50 is under 100 nM.

Question: How did the IC50 turn out when `CC(=O)N1CCN(c2cccc(Cn3cc(-c4nc(-c5ccc(OC(F)(F)F)cc5)no4)ccc3=O)c2)CC1` [Example 182] was run?
Answer: The IC50 was under 100 nM.

Question: For `CCOC(=O)CN1CCN(c2cccc(Cn3cc(-c4nc(-c5ccc(OC(F)(F)F)cc5)no4)ccc3=O)c2)CC1=O` [Example 183, ethyl 2-(2-oxo-4-{3-[(2-oxo-5-{3-[4-(trifluoromethoxy)phenyl]-1,2,4-oxadiazol-5-yl}-1,2-dihydropyridin-1-yl)methyl]phenyl}piperazin-1-yl)acetate], which IC50 is on record?
Answer: Its IC50 is under 100 nM.

Question: Which IC50 does the source give for `CS(=O)(=O)C1CCN(c2cc(Cn3nc(-c4nc(-c5ccc(OC(F)(F)F)cc5)no4)ccc3=O)ccn2)CC1` [Example 184, 2-{[2-(4-methanesulfonylpiperidin-1-yl)pyridin-4-yl]methyl}-6-{3-[4-(trifluoromethoxy)phenyl]-1,2,4-oxadiazol-5-yl}-2,3-dihydropyridazin-3-one] here?
Answer: The IC50 was under 100 nM.

Question: Which IC50 does the source give for `CN1CCN(c2cccc(Cn3cc(-c4nc(-c5ccc(SC(F)(F)F)cc5)no4)ccc3=O)c2)CC1` [Example 185, 1-{[3-(4-methylpiperazin-1-yl)phenyl]methyl}-5-(3-{4-[(trifluoromethyl)sulfanyl]phenyl}-oxadiazol-5-yl)-1,2-dihydropyridin-2-one] here?
Answer: The IC50 was under 100 nM.

Question: For `CN1CCN(c2cccc(Cn3cc(-c4noc(-c5ccc(S(C)(=O)=O)cc5)n4)ccc3=O)c2)CC1` [Example 186, 5-[5-(4-methanesulfonylphenyl)-1,2,4-oxadiazol-3-yl]-1-{[3-(4-methylpiperazin-1-yl)phenyl]methyl}-1,2-dihydropyridin-2-one], which IC50 is on record?
Answer: Its IC50 is under 100 nM.

Question: How did the IC50 turn out when `COCCOc1cccc(Cn2cc(-c3noc(-c4ccc(S(=O)(=O)C(F)(F)F)cc4)n3)ccc2=O)c1` [Example 187, 1-{[3-(2-methoxyethoxy)phenyl]methyl}-5-[5-(4-trifluoromethanesulfonylphenyl)-1,2,4-oxadiazol-3-yl]-1,2-dihydropyridin-2-one] was run?
Answer: The IC50 was under 100 nM.

Question: How did the IC50 turn out when `CN1CCN(c2cccc(Cn3cc(-c4noc(-c5ccc(S(=O)(=O)C(F)(F)F)cc5)n4)ccc3=O)c2)CC1` [Example 188, 1-{[3-(4-methylpiperazin-1-yl)phenyl]methyl}-5-[5-(4-trifluoromethanesulfonylphenyl)-1,2,4-oxadiazol-3-yl]-1,2-dihydropyridin-2-one] was run?
Answer: The IC50 was under 100 nM.

Question: Which IC50 does the source give for `CN1CCN(c2cccc(Cn3cc(-c4noc(-c5ccc(OC(F)F)cc5)n4)ccc3=O)c2)CC1` [Example 189, 5-{5-[4-(difluoromethoxy)phenyl]-1,2,4-oxadiazol-3-yl}-1-{[3-(4-methylpiperazin-1-yl)phenyl]methyl}-1,2-dihydropyridin-2-one] here?
Answer: Its IC50 is under 100 nM.

Question: `COCCOc1cccc(Cn2cc(-c3noc(-c4ccc(N5CCOC5=O)cc4)n3)ccc2=O)c1` [Example 190, 1-{[3-(2-methoxyethoxy)phenyl]methyl}-5-{5-[4-(2-oxo-1,3-oxazolidin-3-yl)phenyl]-1,2,4-oxadiazol-3-yl}-1,2-dihydropyridin-2-one] was tested. Which IC50 did it give?
Answer: The IC50 was under 100 nM.

Question: For `COCCOc1cccc(Cn2cc(-c3noc(-c4ccc(OC)cc4)n3)ccc2=O)c1` [Example 191, 1-{[3-(2-methoxyethoxy)phenyl]methyl}-5-[5-(4-methoxyphenyl)-1,2,4-oxadiazol-3-yl]-1,2-dihydropyridin-2-one], which IC50 is on record?
Answer: Its IC50 is under 100 nM.

Question: `COCCOc1cccc(Cn2cc(-c3noc(-c4ccc(C)cc4)n3)ccc2=O)c1` [Example 192, 1-{[3-(2-methoxyethoxy)phenyl]methyl}-5-[5-(4-methylphenyl)-1,2,4-oxadiazol-3-yl]-1,2-dihydropyridin-2-one] was tested. Which IC50 did it give?
Answer: Its IC50 is under 100 nM.

Question: For `COCCOc1cccc(Cn2cc(-c3noc(-c4ccc(C(F)(F)F)cc4)n3)ccc2=O)c1` [Example 193, 1-{[3-(2-methoxyethoxy)phenyl]methyl}-5-{5-[4-(trifluoromethyl)phenyl]-1,2,4-oxadiazol-3-yl}-1,2-dihydropyridin-2-one], which IC50 is on record?
Answer: Its IC50 is under 100 nM.

Question: `COCCOc1cccc(Cn2cc(-c3noc(-c4ccc(C#N)cc4)n3)ccc2=O)c1` [Example 194, 4-[3-(1-{[3-(2-methoxyethoxy)phenyl]methyl}-6-oxo-1,6-dihydropyridin-3-yl)-1,2,4-oxadiazol-5-yl]benzonitrile] was tested. Which IC50 did it give?
Answer: Its IC50 is under 100 nM.

Question: For `COCCOc1cccc(Cn2cc(-c3noc(-c4ccc(C(C)C)cc4)n3)ccc2=O)c1` [Example 195, 1-{[3-(2-methoxyethoxy)phenyl]methyl}-5-{5-[4-(propan-2-yl)phenyl]-1,2,4-oxadiazol-3-yl}-1,2-dihydropyridin-2-one], which IC50 is on record?
Answer: The IC50 was under 100 nM.

Question: How did the IC50 turn out when `COCCOc1cccc(Cn2cc(-c3noc(-c4ccc(OC(C)C)cc4)n3)ccc2=O)c1` [Example 196, 1-{[3-(2-methoxyethoxy)phenyl]methyl}-5-{5-[4-(propan-2-yloxy)phenyl]-1,2,4-oxadiazol-3-yl}-1,2-dihydropyridin-2-one] was run?
Answer: Its IC50 is 100 to 1000 nM.

Question: Which IC50 does the source give for `COCCOc1cccc(Cn2cc(-c3noc(-c4ccc(OC(F)F)cc4)n3)ccc2=O)c1` [Example 197, 5-{5-[4-(difluoromethoxy)phenyl]-1,2,4-oxadiazol-3-yl}-1-{[3-(2-methoxyethoxy)phenyl]methyl}-1,2-dihydropyridin-2-one] here?
Answer: Its IC50 is under 100 nM.

Question: For `COCCOc1cccc(Cn2cc(-c3noc(-c4ccc(Cl)cc4)n3)ccc2=O)c1` [Example 198, 5-[5-(4-chlorophenyl)-1,2,4-oxadiazol-3-yl]-1-{[3-(2-methoxyethoxy)phenyl]methyl}-1,2-dihydropyridin-2-one], which IC50 is on record?
Answer: The IC50 was under 100 nM.

Question: Which IC50 does the source give for `CNS(=O)(=O)c1ccc(-c2nc(-c3ccc(=O)n(Cc4cccc(OCCOC)c4)c3)no2)cc1` [Example 199, 4-[3-(1-{[3-(2-methoxyethoxy)phenyl]methyl}-6-oxo-1,6-dihydropyridin-3-yl)-1,2,4-oxadiazol-5-yl]-N-methylbenzene-1-sulfonamide] here?
Answer: The IC50 was 100 to 1000 nM.

Question: Which IC50 does the source give for `COCCOc1cccc(Cn2cc(-c3noc(-c4ccc(N5CCOCC5)cc4)n3)ccc2=O)c1` [Example 200, 1-{[3-(2-methoxyethoxy)phenyl]methyl}-5-{5-[4-(morpholin-4-yl)phenyl]-1,2,4-oxadiazol-3-yl}-1,2-dihydropyridin-2-one] here?
Answer: Its IC50 is under 100 nM.

Question: With `COCCOc1cccc(Cn2cc(-c3noc(-c4ccc(CC#N)cc4)n3)ccc2=O)c1` [Example 201, 2-{4-[3-(1-{[3-(2-methoxyethoxy)phenyl]methyl}-6-oxo-1,6-dihydropyridin-3-yl)-1,2,4-oxadiazol-5-yl]phenyl}acetonitrile] as the compound, how does the IC50 read?
Answer: Its IC50 is under 100 nM.

Question: With `COCCOc1cccc(Cn2cc(-c3noc(-c4ccc(S(C)(=O)=O)cc4)n3)ccc2=O)c1` [Example 202, 5-[5-(4-methanesulfonylphenyl)-1,2,4-oxadiazol-3-yl]-1-{[3-(2-methoxyethoxy)phenyl]methyl}-1,2-dihydropyridin-2-one] as the compound, how does the IC50 read?
Answer: Its IC50 is 100 to 1000 nM.

Question: Which IC50 does the source give for `COCCOc1cccc(Cn2cc(-c3noc(-c4ccc(OCC(F)(F)F)cc4)n3)ccc2=O)c1` [Example 203, 1-{[3-(2-methoxyethoxy)phenyl]methyl}-5-{5-[4-(2,2,2-trifluoroethoxy)phenyl]-1,2,4-oxadiazol-3-yl}-1,2-dihydropyridin-2-one] here?
Answer: The IC50 was under 100 nM.

Question: Which IC50 does the source give for `CS(=O)(=O)CCCOc1cccc(Cn2cc(-c3noc(-c4ccc(N5CCOCC5)cc4)n3)ccc2=O)c1` [Example 204, 1-{[3-(3-methanesulfonylpropoxy)phenyl]methyl}-5-{5-[4-(morpholin-4-yl)phenyl]-1,2,4-oxadiazol-3-yl}-1,2-dihydropyridin-2-one] here?
Answer: Its IC50 is under 100 nM.

Question: With `CS(=O)(=O)CCCOc1cccc(Cn2cc(-c3noc(-c4ccc(S(C)(=O)=O)cc4)n3)ccc2=O)c1` [Example 205, 5-[5-(4-methanesulfonylphenyl)-1,2,4-oxadiazol-3-yl]-1-{[3-(3-methanesulfonylpropoxy)phenyl]methyl}-1,2-dihydropyridin-2-one] as the compound, how does the IC50 read?
Answer: The IC50 was under 100 nM.

Question: `CC(C)Oc1ccc(-c2nc(-c3ccc(=O)n(Cc4cccc(OCCCS(C)(=O)=O)c4)c3)no2)cc1` [Example 206, 1-{[3-(3-methanesulfonylpropoxy)phenyl]methyl}-5-{5-[4-(propan-2-yloxy)phenyl]-1,2,4-oxadiazol-3-yl}-1,2-dihydropyridin-2-one] was tested. Which IC50 did it give?
Answer: Its IC50 is under 100 nM.

Same assay, conditions: 6 hrs hypoxia (1% O2), luminescence

Question: How did the IC50 turn out when `CC(C)(C)[Si](C)(C)OCCOc1cccc(Cn2nc(-c3nc(-c4ccc(OC(F)(F)F)cc4)no3)ccc2=O)c1` [Example 178, 2-[(3-{2-[(tert-butyldimethylsilyl)oxy]ethoxy}phenyl)methyl]-6-{3-[4-(trifluoromethoxy)phenyl]-1,2,4-oxadiazol-5-yl}-2,3-dihydropyridazin-3-one] was run?
Answer: Its IC50 is 100 to 1000 nM.
